Measured values published in ChEMBL document CHEMBL3991601, “The target landscape of clinical kinase drugs” (Science, 2017).
The source made the active and inactive calls. Rule as the data show it, for most assays here: actives have a measured Kd and inactives only a lower limit.

target: Tyrosine-protein kinase ABL1 (Homo sapiens, UniProt P00519)
Also: in the data inactive means no Kd found up to 30 µM.

Tyrosine-protein kinase ABL1, sequence (P00519 whole entry): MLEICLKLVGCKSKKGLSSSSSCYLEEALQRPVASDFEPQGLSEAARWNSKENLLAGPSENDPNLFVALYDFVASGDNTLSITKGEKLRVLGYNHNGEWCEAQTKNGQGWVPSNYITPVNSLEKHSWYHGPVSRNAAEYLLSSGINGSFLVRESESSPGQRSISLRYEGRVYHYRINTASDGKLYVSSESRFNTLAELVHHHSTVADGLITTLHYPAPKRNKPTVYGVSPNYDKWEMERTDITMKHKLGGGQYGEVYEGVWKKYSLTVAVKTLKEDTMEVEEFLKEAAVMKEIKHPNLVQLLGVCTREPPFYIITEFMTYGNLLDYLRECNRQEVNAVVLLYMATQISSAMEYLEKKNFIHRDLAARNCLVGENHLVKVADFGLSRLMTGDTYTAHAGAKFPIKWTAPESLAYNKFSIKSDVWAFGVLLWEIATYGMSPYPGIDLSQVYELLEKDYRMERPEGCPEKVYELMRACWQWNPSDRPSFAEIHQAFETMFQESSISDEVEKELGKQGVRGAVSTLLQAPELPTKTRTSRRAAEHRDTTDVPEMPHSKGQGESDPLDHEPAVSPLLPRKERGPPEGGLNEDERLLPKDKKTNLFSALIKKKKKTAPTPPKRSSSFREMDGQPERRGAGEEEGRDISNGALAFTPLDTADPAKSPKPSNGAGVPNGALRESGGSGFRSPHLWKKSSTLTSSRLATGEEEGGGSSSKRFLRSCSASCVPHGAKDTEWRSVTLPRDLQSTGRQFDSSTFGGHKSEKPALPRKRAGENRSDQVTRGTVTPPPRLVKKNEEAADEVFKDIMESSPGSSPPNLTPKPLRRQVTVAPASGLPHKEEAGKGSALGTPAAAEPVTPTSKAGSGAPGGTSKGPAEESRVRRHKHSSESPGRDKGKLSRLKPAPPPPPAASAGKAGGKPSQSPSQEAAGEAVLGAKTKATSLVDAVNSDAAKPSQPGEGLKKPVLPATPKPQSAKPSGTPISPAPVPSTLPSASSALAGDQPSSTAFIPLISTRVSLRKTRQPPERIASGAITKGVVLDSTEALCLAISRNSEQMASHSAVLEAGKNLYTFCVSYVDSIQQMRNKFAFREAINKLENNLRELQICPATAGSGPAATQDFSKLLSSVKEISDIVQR

With `CN1CCC(CNc2ccc3ncc(-c4cccc(OC(F)(F)F)c4)n3n2)CC1` [SGI-1776] as the compound, how does the Kd read?
Its Kd is > 30 µM (inactive).

`C[C@@H]1CN(Cc2ccc(F)cc2)[C@@H](C)CN1C(=O)c1cc2c(C(=O)C(=O)N(C)C)cn(C)c2cc1Cl` [TALMAPIMOD] was tested. Which Kd did it give?
The Kd was > 30 µM (inactive).

How did the Kd turn out when `CN1CCC(COc2cnc(-c3cccc(Cn4nc(-c5cccc(C#N)c5)ccc4=O)c3)nc2)CC1` [TEPOTINIB] was run?
Its Kd is > 30 µM (inactive).

target: T1, Activin receptor type-1 (Homo sapiens, UniProt Q04771)
T1 sequence (Q04771 whole entry): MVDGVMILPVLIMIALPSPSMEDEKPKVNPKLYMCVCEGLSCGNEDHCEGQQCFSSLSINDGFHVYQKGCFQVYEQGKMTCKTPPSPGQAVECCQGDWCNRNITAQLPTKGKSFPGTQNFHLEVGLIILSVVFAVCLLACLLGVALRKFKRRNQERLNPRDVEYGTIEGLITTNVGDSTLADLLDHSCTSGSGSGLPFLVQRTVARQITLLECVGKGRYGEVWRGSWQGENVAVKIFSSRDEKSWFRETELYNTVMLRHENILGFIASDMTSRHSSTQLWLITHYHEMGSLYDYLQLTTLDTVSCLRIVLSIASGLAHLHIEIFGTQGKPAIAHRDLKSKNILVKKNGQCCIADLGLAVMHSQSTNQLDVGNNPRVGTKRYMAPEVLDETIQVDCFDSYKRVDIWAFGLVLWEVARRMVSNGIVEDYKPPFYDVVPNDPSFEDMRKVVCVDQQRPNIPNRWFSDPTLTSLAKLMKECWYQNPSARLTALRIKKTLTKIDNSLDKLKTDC

How did the Kd turn out when `CN1CCC(CNc2ccc3ncc(-c4cccc(OC(F)(F)F)c4)n3n2)CC1` [SGI-1776] was run?
The Kd was 0.458 µM (active).

How did the Kd turn out when `C[C@@H]1CN(Cc2ccc(F)cc2)[C@@H](C)CN1C(=O)c1cc2c(C(=O)C(=O)N(C)C)cn(C)c2cc1Cl` [TALMAPIMOD] was run?
Its Kd is > 30 µM (inactive).

How did the Kd turn out when `CN1CCC(COc2cnc(-c3cccc(Cn4nc(-c5cccc(C#N)c5)ccc4=O)c3)nc2)CC1` [TEPOTINIB] was run?
Its Kd is > 30 µM (inactive).

target: Serine/threonine-protein kinase PAK 4 (Homo sapiens, UniProt O96013)
Sequence (O96013 whole entry): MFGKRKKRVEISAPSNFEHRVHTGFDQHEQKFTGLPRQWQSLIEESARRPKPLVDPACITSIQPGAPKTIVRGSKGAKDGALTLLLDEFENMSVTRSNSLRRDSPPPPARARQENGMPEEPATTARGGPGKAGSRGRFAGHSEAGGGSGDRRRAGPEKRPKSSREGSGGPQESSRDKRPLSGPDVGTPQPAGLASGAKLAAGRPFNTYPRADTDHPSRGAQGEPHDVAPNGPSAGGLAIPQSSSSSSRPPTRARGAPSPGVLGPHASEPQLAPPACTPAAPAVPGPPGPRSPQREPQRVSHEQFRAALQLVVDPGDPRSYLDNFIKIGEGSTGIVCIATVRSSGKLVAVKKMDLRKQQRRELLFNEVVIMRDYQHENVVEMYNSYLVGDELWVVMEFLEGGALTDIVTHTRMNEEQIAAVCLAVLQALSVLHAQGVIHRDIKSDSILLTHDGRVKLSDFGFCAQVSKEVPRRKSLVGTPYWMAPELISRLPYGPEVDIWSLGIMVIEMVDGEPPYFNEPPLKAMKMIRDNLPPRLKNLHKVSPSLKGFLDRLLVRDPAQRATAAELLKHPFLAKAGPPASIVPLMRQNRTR

How did the Kd turn out when `CN1CCC(CNc2ccc3ncc(-c4cccc(OC(F)(F)F)c4)n3n2)CC1` [SGI-1776] was run?
The Kd was > 30 µM (inactive).

For `C[C@@H]1CN(Cc2ccc(F)cc2)[C@@H](C)CN1C(=O)c1cc2c(C(=O)C(=O)N(C)C)cn(C)c2cc1Cl` [TALMAPIMOD], which Kd is on record?
The Kd was > 30 µM (inactive).

For `CN1CCC(COc2cnc(-c3cccc(Cn4nc(-c5cccc(C#N)c5)ccc4=O)c3)nc2)CC1` [TEPOTINIB], which Kd is on record?
Its Kd is > 30 µM (inactive).

target: T2, Interleukin-1 receptor-associated kinase 4 (Homo sapiens, UniProt Q9NWZ3)
T2 sequence (Q9NWZ3 whole entry): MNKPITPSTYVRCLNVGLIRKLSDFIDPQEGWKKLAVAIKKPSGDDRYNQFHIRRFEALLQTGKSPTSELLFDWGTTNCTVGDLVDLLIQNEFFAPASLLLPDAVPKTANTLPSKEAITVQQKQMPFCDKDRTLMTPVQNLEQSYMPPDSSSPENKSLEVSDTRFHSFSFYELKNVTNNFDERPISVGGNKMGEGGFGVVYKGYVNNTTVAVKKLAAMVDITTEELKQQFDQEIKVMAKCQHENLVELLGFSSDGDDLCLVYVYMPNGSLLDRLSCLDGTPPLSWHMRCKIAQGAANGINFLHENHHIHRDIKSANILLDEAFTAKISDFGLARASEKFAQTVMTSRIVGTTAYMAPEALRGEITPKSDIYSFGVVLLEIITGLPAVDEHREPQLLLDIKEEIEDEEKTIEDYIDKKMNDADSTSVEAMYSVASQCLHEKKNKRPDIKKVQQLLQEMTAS

For `CN1CCC(CNc2ccc3ncc(-c4cccc(OC(F)(F)F)c4)n3n2)CC1` [SGI-1776], which Kd is on record?
Its Kd is > 30 µM (inactive).

With `C[C@@H]1CN(Cc2ccc(F)cc2)[C@@H](C)CN1C(=O)c1cc2c(C(=O)C(=O)N(C)C)cn(C)c2cc1Cl` [TALMAPIMOD] as the compound, how does the Kd read?
Its Kd is > 30 µM (inactive).

How did the Kd turn out when `CN1CCC(COc2cnc(-c3cccc(Cn4nc(-c5cccc(C#N)c5)ccc4=O)c3)nc2)CC1` [TEPOTINIB] was run?
Its Kd is > 30 µM (inactive).

target: T3, cGMP-dependent protein kinase 1 (Homo sapiens, UniProt Q13976)
T3 sequence (Q13976 whole entry): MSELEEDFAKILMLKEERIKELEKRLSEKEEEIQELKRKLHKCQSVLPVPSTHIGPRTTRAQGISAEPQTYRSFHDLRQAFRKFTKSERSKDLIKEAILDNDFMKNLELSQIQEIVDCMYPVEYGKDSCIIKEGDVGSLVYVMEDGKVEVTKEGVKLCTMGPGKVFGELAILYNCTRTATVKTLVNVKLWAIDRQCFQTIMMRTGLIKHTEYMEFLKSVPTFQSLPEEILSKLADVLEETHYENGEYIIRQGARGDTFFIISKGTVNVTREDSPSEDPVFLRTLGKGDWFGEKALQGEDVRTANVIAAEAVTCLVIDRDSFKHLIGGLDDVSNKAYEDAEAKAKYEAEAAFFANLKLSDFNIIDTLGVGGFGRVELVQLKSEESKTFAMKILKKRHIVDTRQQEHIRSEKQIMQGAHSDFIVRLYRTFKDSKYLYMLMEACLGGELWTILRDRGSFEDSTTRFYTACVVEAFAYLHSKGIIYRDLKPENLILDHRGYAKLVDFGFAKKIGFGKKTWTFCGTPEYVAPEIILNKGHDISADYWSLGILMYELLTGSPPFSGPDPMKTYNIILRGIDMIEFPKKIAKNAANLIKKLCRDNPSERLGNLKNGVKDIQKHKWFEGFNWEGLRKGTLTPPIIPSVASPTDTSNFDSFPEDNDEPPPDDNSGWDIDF

For `CN1CCC(CNc2ccc3ncc(-c4cccc(OC(F)(F)F)c4)n3n2)CC1` [SGI-1776], which Kd is on record?
The Kd was > 30 µM (inactive).

How did the Kd turn out when `C[C@@H]1CN(Cc2ccc(F)cc2)[C@@H](C)CN1C(=O)c1cc2c(C(=O)C(=O)N(C)C)cn(C)c2cc1Cl` [TALMAPIMOD] was run?
The Kd was > 30 µM (inactive).

With `CN1CCC(COc2cnc(-c3cccc(Cn4nc(-c5cccc(C#N)c5)ccc4=O)c3)nc2)CC1` [TEPOTINIB] as the compound, how does the Kd read?
The Kd was > 30 µM (inactive).

target: BMP-2-inducible protein kinase (Homo sapiens, UniProt Q9NSY1)

For `CN1CCC(CNc2ccc3ncc(-c4cccc(OC(F)(F)F)c4)n3n2)CC1` [SGI-1776], which Kd is on record?
The Kd was 8.53 µM (active).

How did the Kd turn out when `C[C@@H]1CN(Cc2ccc(F)cc2)[C@@H](C)CN1C(=O)c1cc2c(C(=O)C(=O)N(C)C)cn(C)c2cc1Cl` [TALMAPIMOD] was run?
The Kd was > 30 µM (inactive).

How did the Kd turn out when `CN1CCC(COc2cnc(-c3cccc(Cn4nc(-c5cccc(C#N)c5)ccc4=O)c3)nc2)CC1` [TEPOTINIB] was run?
Its Kd is > 30 µM (inactive).

target: Ephrin type-A receptor 4 (Homo sapiens, UniProt P54764)
Sequence (P54764 whole entry): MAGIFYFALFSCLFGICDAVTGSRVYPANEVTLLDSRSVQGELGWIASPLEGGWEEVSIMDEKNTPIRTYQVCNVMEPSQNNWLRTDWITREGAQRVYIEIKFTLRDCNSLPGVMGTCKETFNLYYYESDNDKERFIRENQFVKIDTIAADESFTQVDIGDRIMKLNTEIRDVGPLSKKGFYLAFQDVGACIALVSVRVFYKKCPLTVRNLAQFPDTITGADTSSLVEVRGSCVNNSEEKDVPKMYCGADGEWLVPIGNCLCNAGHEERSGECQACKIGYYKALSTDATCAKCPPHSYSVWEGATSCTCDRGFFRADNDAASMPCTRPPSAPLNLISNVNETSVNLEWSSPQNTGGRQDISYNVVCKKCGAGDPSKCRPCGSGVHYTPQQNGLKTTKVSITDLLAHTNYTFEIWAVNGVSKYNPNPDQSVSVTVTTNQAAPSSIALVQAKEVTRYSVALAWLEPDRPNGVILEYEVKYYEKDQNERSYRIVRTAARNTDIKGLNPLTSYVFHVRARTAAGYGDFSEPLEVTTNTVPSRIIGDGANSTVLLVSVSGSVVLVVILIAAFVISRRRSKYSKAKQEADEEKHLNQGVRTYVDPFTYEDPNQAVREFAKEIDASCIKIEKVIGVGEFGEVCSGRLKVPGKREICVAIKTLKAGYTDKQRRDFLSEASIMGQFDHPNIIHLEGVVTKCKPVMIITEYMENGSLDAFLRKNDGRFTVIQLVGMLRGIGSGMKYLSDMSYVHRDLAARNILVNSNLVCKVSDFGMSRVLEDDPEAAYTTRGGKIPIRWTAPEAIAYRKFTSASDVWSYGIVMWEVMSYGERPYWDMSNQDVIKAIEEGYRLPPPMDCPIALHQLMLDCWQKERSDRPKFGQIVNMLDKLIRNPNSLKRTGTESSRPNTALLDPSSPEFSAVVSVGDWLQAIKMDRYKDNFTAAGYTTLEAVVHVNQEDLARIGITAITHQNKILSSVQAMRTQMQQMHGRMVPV

For `CN1CCC(CNc2ccc3ncc(-c4cccc(OC(F)(F)F)c4)n3n2)CC1` [SGI-1776], which Kd is on record?
The Kd was > 30 µM (inactive).

Which Kd does the source give for `C[C@@H]1CN(Cc2ccc(F)cc2)[C@@H](C)CN1C(=O)c1cc2c(C(=O)C(=O)N(C)C)cn(C)c2cc1Cl` [TALMAPIMOD] here?
The Kd was > 30 µM (inactive).

For `CN1CCC(COc2cnc(-c3cccc(Cn4nc(-c5cccc(C#N)c5)ccc4=O)c3)nc2)CC1` [TEPOTINIB], which Kd is on record?
The Kd was > 30 µM (inactive).

target: Tyrosine-protein kinase Lck (Homo sapiens, UniProt P06239)
Sequence (P06239 whole entry): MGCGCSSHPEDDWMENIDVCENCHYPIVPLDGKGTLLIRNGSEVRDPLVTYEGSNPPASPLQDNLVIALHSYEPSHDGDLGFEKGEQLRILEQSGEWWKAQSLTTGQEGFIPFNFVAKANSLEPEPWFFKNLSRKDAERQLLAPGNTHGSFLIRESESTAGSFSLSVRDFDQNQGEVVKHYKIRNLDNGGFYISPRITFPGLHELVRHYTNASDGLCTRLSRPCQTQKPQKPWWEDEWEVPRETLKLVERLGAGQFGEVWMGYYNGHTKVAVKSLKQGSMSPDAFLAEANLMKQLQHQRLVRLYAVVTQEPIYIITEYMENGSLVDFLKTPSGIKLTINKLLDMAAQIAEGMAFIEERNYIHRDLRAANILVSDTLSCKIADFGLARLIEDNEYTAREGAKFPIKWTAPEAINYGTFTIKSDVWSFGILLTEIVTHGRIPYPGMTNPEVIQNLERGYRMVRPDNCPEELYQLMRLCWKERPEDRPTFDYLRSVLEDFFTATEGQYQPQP

`CN1CCC(CNc2ccc3ncc(-c4cccc(OC(F)(F)F)c4)n3n2)CC1` [SGI-1776] was tested. Which Kd did it give?
The Kd was > 30 µM (inactive).

How did the Kd turn out when `C[C@@H]1CN(Cc2ccc(F)cc2)[C@@H](C)CN1C(=O)c1cc2c(C(=O)C(=O)N(C)C)cn(C)c2cc1Cl` [TALMAPIMOD] was run?
Its Kd is > 30 µM (inactive).

`CN1CCC(COc2cnc(-c3cccc(Cn4nc(-c5cccc(C#N)c5)ccc4=O)c3)nc2)CC1` [TEPOTINIB] was tested. Which Kd did it give?
Its Kd is > 30 µM (inactive).

target: Serine/threonine-protein kinase N2 (Homo sapiens, UniProt Q16513)
Sequence (Q16513 whole entry): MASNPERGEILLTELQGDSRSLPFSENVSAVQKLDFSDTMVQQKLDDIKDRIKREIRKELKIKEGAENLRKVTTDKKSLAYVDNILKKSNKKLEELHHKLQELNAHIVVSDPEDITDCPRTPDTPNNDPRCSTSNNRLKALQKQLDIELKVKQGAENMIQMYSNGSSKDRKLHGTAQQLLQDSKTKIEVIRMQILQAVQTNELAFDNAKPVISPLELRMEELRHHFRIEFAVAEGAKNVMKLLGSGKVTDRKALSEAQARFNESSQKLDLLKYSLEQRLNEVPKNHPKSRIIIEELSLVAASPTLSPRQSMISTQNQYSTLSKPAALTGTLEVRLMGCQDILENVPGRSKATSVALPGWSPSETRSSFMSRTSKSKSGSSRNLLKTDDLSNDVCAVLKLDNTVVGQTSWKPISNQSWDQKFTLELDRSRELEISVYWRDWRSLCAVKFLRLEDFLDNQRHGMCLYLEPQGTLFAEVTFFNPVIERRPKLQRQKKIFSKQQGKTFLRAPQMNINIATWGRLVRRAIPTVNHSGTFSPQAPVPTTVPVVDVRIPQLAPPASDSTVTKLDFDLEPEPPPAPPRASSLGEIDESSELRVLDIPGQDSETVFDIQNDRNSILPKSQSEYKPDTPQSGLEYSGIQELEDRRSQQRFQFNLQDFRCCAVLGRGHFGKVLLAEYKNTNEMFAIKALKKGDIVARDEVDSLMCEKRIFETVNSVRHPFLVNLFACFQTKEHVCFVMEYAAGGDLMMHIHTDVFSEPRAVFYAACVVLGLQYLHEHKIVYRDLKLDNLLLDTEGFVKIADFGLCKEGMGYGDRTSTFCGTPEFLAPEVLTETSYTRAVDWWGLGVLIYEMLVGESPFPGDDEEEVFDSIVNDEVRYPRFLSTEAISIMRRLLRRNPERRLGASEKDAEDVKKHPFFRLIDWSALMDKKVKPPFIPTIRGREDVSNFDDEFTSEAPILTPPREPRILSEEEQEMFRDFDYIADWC

Which Kd does the source give for `CN1CCC(CNc2ccc3ncc(-c4cccc(OC(F)(F)F)c4)n3n2)CC1` [SGI-1776] here?
Its Kd is > 30 µM (inactive).

With `C[C@@H]1CN(Cc2ccc(F)cc2)[C@@H](C)CN1C(=O)c1cc2c(C(=O)C(=O)N(C)C)cn(C)c2cc1Cl` [TALMAPIMOD] as the compound, how does the Kd read?
The Kd was > 30 µM (inactive).

How did the Kd turn out when `CN1CCC(COc2cnc(-c3cccc(Cn4nc(-c5cccc(C#N)c5)ccc4=O)c3)nc2)CC1` [TEPOTINIB] was run?
The Kd was > 30 µM (inactive).

target: T4, Exosome RNA helicase MTR4 (Homo sapiens, UniProt P42285)
T4 sequence (P42285 whole entry): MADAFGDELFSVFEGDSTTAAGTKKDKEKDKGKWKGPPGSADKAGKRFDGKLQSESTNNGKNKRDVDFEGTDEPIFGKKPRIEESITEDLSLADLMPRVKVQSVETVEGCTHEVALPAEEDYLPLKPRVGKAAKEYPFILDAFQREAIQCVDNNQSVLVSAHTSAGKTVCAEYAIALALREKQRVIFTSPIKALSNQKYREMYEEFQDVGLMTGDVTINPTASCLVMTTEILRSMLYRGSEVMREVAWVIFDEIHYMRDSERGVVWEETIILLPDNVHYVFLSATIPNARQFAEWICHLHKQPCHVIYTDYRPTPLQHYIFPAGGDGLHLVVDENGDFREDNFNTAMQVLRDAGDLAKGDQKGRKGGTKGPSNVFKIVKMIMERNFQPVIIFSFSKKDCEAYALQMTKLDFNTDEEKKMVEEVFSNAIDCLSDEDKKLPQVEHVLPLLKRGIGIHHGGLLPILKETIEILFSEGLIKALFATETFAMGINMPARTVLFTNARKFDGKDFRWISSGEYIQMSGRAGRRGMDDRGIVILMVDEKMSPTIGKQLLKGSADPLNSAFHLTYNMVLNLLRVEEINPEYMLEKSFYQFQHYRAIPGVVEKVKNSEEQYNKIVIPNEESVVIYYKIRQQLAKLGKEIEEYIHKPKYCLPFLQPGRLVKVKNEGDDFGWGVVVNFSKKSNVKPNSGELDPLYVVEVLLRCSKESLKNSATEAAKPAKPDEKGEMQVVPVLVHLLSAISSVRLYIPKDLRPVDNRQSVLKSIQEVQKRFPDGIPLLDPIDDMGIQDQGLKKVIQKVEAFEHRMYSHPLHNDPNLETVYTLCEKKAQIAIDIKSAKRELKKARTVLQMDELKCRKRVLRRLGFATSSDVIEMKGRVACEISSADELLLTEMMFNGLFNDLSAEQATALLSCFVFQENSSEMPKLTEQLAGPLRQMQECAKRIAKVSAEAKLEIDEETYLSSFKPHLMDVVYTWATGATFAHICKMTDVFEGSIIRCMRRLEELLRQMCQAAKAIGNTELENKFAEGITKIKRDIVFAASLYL

For `CN1CCC(CNc2ccc3ncc(-c4cccc(OC(F)(F)F)c4)n3n2)CC1` [SGI-1776], which Kd is on record?
Its Kd is > 30 µM (inactive).

Which Kd does the source give for `C[C@@H]1CN(Cc2ccc(F)cc2)[C@@H](C)CN1C(=O)c1cc2c(C(=O)C(=O)N(C)C)cn(C)c2cc1Cl` [TALMAPIMOD] here?
The Kd was > 30 µM (inactive).

How did the Kd turn out when `CN1CCC(COc2cnc(-c3cccc(Cn4nc(-c5cccc(C#N)c5)ccc4=O)c3)nc2)CC1` [TEPOTINIB] was run?
Its Kd is > 30 µM (inactive).
